≈ marks a conversion by molar mass, not a printed value. Where two headings read alike, the source gives them in different places.
Experiments:
[1] = Human cell viability (cytotoxicity), ATP levels by CellTiter-Glo; type: cell-based; conditions: HepG2 cells (ATCC HB-8065), 24 hours incubation, read-out: IC50 (μg/mL), Cytotoxicity in HepG2 ATCC HB-8065 Cell Line
Description: Compounds were assessed for potential non-specific cytotoxic effects against a human hepatic cell line (HepG2 ATCC HB-8065). 96-well plates were seeded with HepG2 cells in concentration of 15,000 cells per well in 100 μL of MEM growth media completed with 1% NEAA and 1% sodium pyruvate. Border wells were filled with 100 μL of sterile PBS. Two days upon cells incubation, the compounds were added. Compound dilutions were prepared in 96-well V-bottom plate in pure DMSO. Growth media from 5 plates were aspirated and replaced with 98.7 μL of fresh growth media. 1.28 μL of compounds prepared in V-bottom plates were transferred with multichannel pipette into test plates (78.1× dilution). Final DMSO concentration was 1.28% per well. In control wells, 1.28 μL of DMSO was added in 98.7 μL of media. Compounds were tested in duplicates. Cells were incubated with compounds for 24 hours when cell viability was assessed by measuring ATP levels. ATP levels were measured by adding 50 μL of CellTiter-Glo reagent to each well and after 5 minutes of incubation luminescence was measured with SpectraMax i3. The potential effect of tested compounds on cell viability was determined by comparing the signal obtained in presence of different concentrations of the compounds with those obtained in the presence of DMSO only. The potential effects were then calculated and presented as IC50 values (μg/mL).

E. Coli LeuRS = E. Coli LeuRS (Escherichia coli (strain K12), UniProt P07813); test: Study 2 - Isothermal titration calorimetry (ITC); type: binding; conditions: 25° C., pH 7.5, mean ± SD
Chain of E. Coli LeuRS (P07813 whole entry): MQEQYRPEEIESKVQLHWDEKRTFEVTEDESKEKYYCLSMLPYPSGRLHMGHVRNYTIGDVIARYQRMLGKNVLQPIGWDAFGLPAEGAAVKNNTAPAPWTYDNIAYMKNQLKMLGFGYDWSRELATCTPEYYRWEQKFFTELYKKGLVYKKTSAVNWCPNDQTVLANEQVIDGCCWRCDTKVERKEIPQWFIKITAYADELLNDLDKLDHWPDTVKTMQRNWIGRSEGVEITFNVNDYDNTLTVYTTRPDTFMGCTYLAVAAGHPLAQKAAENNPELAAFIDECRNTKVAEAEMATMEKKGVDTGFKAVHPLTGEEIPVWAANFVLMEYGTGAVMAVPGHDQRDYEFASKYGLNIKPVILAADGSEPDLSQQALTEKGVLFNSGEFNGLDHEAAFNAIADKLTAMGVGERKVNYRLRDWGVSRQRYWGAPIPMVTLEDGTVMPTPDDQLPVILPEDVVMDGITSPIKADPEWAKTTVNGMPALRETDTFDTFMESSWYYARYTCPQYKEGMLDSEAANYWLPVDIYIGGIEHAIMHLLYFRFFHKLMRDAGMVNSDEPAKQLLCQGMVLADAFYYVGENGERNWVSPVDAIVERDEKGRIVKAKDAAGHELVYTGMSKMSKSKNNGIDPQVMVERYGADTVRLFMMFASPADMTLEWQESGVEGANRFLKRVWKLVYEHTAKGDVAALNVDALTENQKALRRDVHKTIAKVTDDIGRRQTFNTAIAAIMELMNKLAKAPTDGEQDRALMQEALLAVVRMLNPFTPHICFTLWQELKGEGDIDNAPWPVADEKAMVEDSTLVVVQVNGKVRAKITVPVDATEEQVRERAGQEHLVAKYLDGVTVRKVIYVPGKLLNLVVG
Description: Escherichia coli BL21(DE3) cells transformed with plasmid pQE-60 containing the open-reading frame sequence of one targeted aaRS (i.e., LeuRS) were induced with 1 mM IPTG (isopropyl β-D-1-thiogalactopyranoside) for 3 hours at 37° C. Bacterial cells were harvested and lysed with 20 mM HEPES (4-(2-hydroxyethyl)-1-piperazinylethane-sulfonic acid) (pH 7.5), 300 mM NaCl, 15 mM imidazole and 1 mM DTT (1,4-dithio-D-threitol). The pathogenic aaRS was first purified by nickel affinity standard chromatography. The eluted protein was concentrated and then further purified by gel filtration using 50 mM HEPES (pH 7.5), 150 mM NaCl buffer.
ITC studies were carried out using a Microcal ITC200 instrument (GE Healthcare). Protein concentration was determined by spectrophotometry by measuring the absorbance at 280 nm using a theoretical molar extinction coefficient of 169,140 M^−1cm^−1. Ligand stock solutions were prepared in DMSO at 62.5 mM concentration. The titrations were performed at 25° C. with 7.5-100 μM E. Coli LeuRS in 50 mM HEPES, 150 mM NaCl, pH 7.5 buffer containing 1% DMSO (v/v). The protein solution in the 280 μL sample cell was titrated with the inhibitor solution (diluted to 75-3000 μM in the same buffer as the protein) using 1-2 μL injections every 120-140 seconds. All titrations were repeated at least two times. To correct for heats of dilution and mixing, the final baseline consisting of small peaks of identical size at the end of each experiment was subtracted. The experimental data were fitted to a theoretical titration curve (one site model) using MicroCal Origin 7 SR4 software.
Note that Compounds R-4.1 and S-4.1 (in Table 15, below) correspond to Compounds V-i and V-ii (in Tables 13 and 14, above), respectively.

[2] = tested on: Acinetobacter baumannii B1931 clinical isolate; test: Study 4 - MIC by broth micro-dilution (CLSI); type: cell-based
Description: (§1) Minimum Inhibitory Concentrations (MICs) were determined by the broth micro-dilution method performed according to Clinical Laboratory Standards Institute guidelines. For testing, 5 mg/mL DMSO solutions were prepared by dissolving solids in DMSO. Standard antibiotics were prepared according to CLSI guidelines as 5 mg/mL stock solutions. Upon DMSO stock solutions preparation, the working solutions in MH media were prepared by adding 38.4 μL of stock solution to 1461.6 μL of MH media. Out of these working solutions 100 μL were transferred to wells in the third column of 96-well assay plates. Assay plates were previously filled with 50 μL of MH media in all wells except for the wells in the third column. Upon compounds and antibiotics addition, 50 μL was transferred from the third to the fourth column, then from the fourth to the fifth and so on.
(§2) MIC value was determined by visual inspection of bacterial growth within 96-well plates. The first column in which there was no visible growth of bacteria was determined as MIC value for compound or antibiotic tested in that particular row. ATCC strains were used as reference strains for which there is a determined value of MIC values for standard antibiotics. The assay is considered valid when MIC values for standard antibiotics are within CLSI designated range for ATCC strain tested.

[3] = tested on: Enterobacter cloacae B1966 clinical isolate; test: Study 4 - MIC by broth micro-dilution (CLSI); type: cell-based
Description: as §1, §2

[4] = tested on: Escherichia coli ATCC 25922; test: Study 4 - MIC by broth micro-dilution (CLSI); type: cell-based
Description: as §1, §2

[5] = tested on: Haemophilus influenzae ATCC 49247; test: Study 4 - MIC by broth micro-dilution (CLSI); type: cell-based; conditions: G = H. influenzae ATCC 49247
Description: as §1, §2

[6] = tested on: Klebsiella pneumoniae ATCC 700603; test: Study 4 - MIC by broth micro-dilution (CLSI); type: cell-based
Description: as §1, §2

[7] = tested on: Pseudomonas aeruginosa ATCC 27853; test: Study 4 - MIC by broth micro-dilution (CLSI); type: cell-based
Description: as §1, §2

[8] = tested on: Escherichia coli ATCC 25922 TolC deficient mutant (E. coli EFFLUX del); test: microbe, parasite or virus in culture; type: cell-based
Description: as §1, §2

[9] = Haemophilus influenzae, ATCC49247, read-out: MIC
[10] = Klebsiella pneumoniae, ATCC700603
[11] = Pseudomonas aeruginosa, ATCC27853

Structure (SMILES) | IC50 at 24 h [1] [µg/mL] | MIC ([2]; Acinetobacter baumannii) [µg/mL] | MIC ([3]; Enterobacter cloacae) [µg/mL] | MIC ([4]; Escherichia coli, ATCC25922) [µg/mL] | MIC [5, 9] [µg/mL] | MIC [6, 10] [µg/mL] | MIC [7, 11] [µg/mL] | other results
CC(C)CC(N)C(=O)N[S+]([O-])c1cccs1 (centres unmarked) [4.41] | > 64 | – | – | – | – | – | – | –
Cc1cccc([S+]([O-])NC(=O)C(N)CC(C)C)c1 (centres unmarked) [4.13] | > 64 | 32 (≈ 119 µM) | 32 (≈ 119 µM) | 8 (≈ 29.8 µM) | 16 (≈ 59.6 µM) | 16 (≈ 59.6 µM) | > 64 | Kd (E. Coli LeuRS): 6.62 ± 1.36 nM; ΔG (E. Coli LeuRS): -11.16 ± 0.12 kcal/mol; ΔH (E. Coli LeuRS): -8.69 ± 1.09 kcal/mol
COc1cccc([S+]([O-])NC(=O)C(N)CC(C)C)c1 (centres unmarked) [4.14] | > 64 | 32 (≈ 113 µM) | 32 (≈ 113 µM) | 8 (≈ 28.1 µM) | 8 (≈ 28.1 µM) | 16 (≈ 56.3 µM) | 64 (≈ 225 µM) | Kd (E. Coli LeuRS): 4.02 ± 0.38 nM; ΔG (E. Coli LeuRS): -11.45 ± 0.06 kcal/mol; ΔH (E. Coli LeuRS): -12.35 ± 0.04 kcal/mol
NC(C(=O)N[S+]([O-])c1ccccc1)c1ccccc1 (centres unmarked) [4.9] | > 64 | – | – | – | – | – | – | –
CC[C@H]1OC(=O)[C@H](C)[C@@H](O[C@H]2C[C@@](C)(OC)[C@@H](O)[C@H](C)O2)[C@H](C)[C@@H](O[C@@H]2O[C@H](C)C[C@H](N(C)C)[C@H]2O)[C@](C)(O)C[C@@H](C)CN(C)[C@H](C)[C@@H](O)[C@]1(C)O [Azithromycin] | – | – | – | – | 2 (≈ 2.67 µM) | – | – | MIC ([2]; Acinetobacter baumannii, F = A. baumannii B1931, read-out: MIC): 16 µg/mL (≈ 21.4 µM); MIC ([3]; C = Enterobacter cloacae B1966, read-out: MIC): 16 µg/mL (≈ 21.4 µM); MIC ([4]; Escherichia coli, ATCC25922, A = E. coli ATCC 25922, read-out: MIC): 4 µg/mL (≈ 5.34 µM); MIC ([6]; Klebsiella pneumoniae, ATCC700603, D = KI. pneumoniae ATCC 700603, read-out: MIC): 32 µg/mL (≈ 42.7 µM); MIC ([7]; Pseudomonas aeruginosa, ATCC27853, E = P. aeruginosa ATCC 27853, read-out: MIC): 32 µg/mL (≈ 42.7 µM); MIC ([8]; Escherichia coli, ATCC25922): 0.5 µg/mL (≈ 0.668 µM)
CC(C)CC(N)C(=O)N[S+]([O-])c1ccc(C(C)(C)C)cc1 (centres unmarked) [4.28] | > 64 | – | – | – | – | – | – | –
CC(C)CC(N)C(=O)N[S+]([O-])c1cccc2ccccc12 (centres unmarked) [4.39] | 46 (≈ 151 µM) | 64 (≈ 210 µM) | 64 (≈ 210 µM) | 16 (≈ 52.6 µM) | 8 (≈ 26.3 µM) | 64 (≈ 210 µM) | > 64 | Kd (E. Coli LeuRS): 12.8 ± 1.6 nM; ΔG (E. Coli LeuRS): -10.77 ± 0.08 kcal/mol; ΔH (E. Coli LeuRS): -9.29 ± 0.62 kcal/mol
Cc1ccc([S+]([O-])NC(=O)C(N)CC(C)C)c(F)c1 (centres unmarked) [4.38] | > 64 | – | – | – | – | – | – | –
NC(Cc1ccccc1)C(=O)N[S+]([O-])c1ccccc1 (centres unmarked) [4.8] | > 64 | – | – | – | – | – | – | –
CC(C)(O/N=C(\C(=O)N[C@@H]1C(=O)N2C(C(=O)[O-])=C(C[n+]3ccccc3)CS[C@H]12)c1csc(N)n1)C(=O)O [Ceftazidime] | – | – | – | – | – | – | – | MIC ([2]; F = A. baumannii B1931): 2 µg/mL (≈ 3.66 µM); MIC ([3]; C = Enterobacter cloacae B1966): 0.5 µg/mL (≈ 0.915 µM); MIC ([4]; A = E. coli ATCC 25922): 0.25 µg/mL (≈ 0.457 µM); MIC [5]: 16 µg/mL (≈ 29.3 µM); MIC ([6]; D = KI. pneumoniae ATCC 700603): >64 µg/mL; MIC ([7]; E = P. aeruginosa ATCC 27853): >64 µg/mL; MIC ([8]; B = E. coli EFFLUX del): 0.25 µg/mL (≈ 0.457 µM)
CC(C)C[C@@H](N)C(=O)N[S+]([O-])c1ccccc1 (some centres unmarked) [4.6] | > 32 | – | – | – | – | – | – | –
CC(C)CC(N)C(=O)N[S+]([O-])c1cccc(F)c1 (centres unmarked) [4.11] | > 64 | 8 (≈ 29.4 µM) | 4 (≈ 14.7 µM) | 1 (≈ 3.67 µM) | 4 (≈ 14.7 µM) | 2 (≈ 7.34 µM) | 64 (≈ 235 µM) | Kd (E. Coli LeuRS): 2.17 ± 0.08 nM; ΔG (E. Coli LeuRS): -11.82 ± 0.04 kcal/mol; ΔH (E. Coli LeuRS): -16.22 ± 0.60 kcal/mol
CSCCC(N)C(=O)N[S+]([O-])c1ccccc1 (centres unmarked) [4.3] | > 64 | – | – | – | – | – | – | –
CC(C)CC(N)C(=O)N[S+]([O-])c1cccc(Cl)c1 (centres unmarked) [4.12] | > 64 | 16 (≈ 55.4 µM) | 8 (≈ 27.7 µM) | 2 (≈ 6.93 µM) | 4 (≈ 13.9 µM) | 4 (≈ 13.9 µM) | 16 (≈ 55.4 µM) | –
